Results on 3 molecules are retold here after patent EP0147146A2, “Enhancement of transdermal drug delivery” (AMERICAN HOME PRODUCTS CORPORATION, priority 1983, dated 1985).

This data set in a line: in-vitro percutaneous transfer test with nude mouse skin in a diffusion cell. It is filed as in vitro ADME. As for the experimental part: The test formulation was first impregnated into 1-inch diameter circles of a thin non-woven rayon fabric usually in amounts representing about 20 mg or more per cm^2 of skin. The impregnated fabric was applied to the outside or epidermal side of the skin while the inside or tissue side of the skin was exposed to an aerated and stirred volume of Ringer's injection fluid maintained at about 37° C. Samples were taken at intervals from the stirred solution and assayed for drug content. The calculated total amount of percutaneously transferred drug is expressed as mg drug per cm^2 of exposed skin.
Two circles of non-woven fabric were impregnated with each formulation (designated A1, A2 and B1, B2 respectively) and tested for percutaneous drug transfer across nude mouse skin.
Two circles of nonwoven fabric were impregnated with each formulation, so as to contain 2-3 mg of conjugated estrogens. These were applied to nude mouse skins (6 em^2 exposed surface) for transdermal penetration tests. The average of duplicate tests is given below, in units of µg of transferred estrogen per cm^2 of exposed skin surface.

Each structure is given as a SMILES string. Structures can show the parent of a compound that is named as a salt.

As for `C[C@]12CC[C@@H]3c4ccc(OS(=O)(=O)O)cc4CC[C@H]3[C@@H]1CC[C@@H]2O` [17-B -estradiol-3-sodium sulfate], the “flux rates of formulations containing menthol” value is on record as “significantly higher flux rates”.

In the case of `C[C@]12CC[C@@H]3c4ccc(O)cc4CC[C@H]3[C@@H]1CC[C@@H]2O` [17-β -estradiol], the “percutaneous transfer with and without menthol” value (lipophilic vehicles, nude mouse skin) is given as “no significant differences”.

Regarding `CCc1cccc2c3c([nH]c12)C(CC)(CC(=O)O)OCC3` (stereo not drawn) [etodolac, 1.8-diethyl-1,3,4,9-tetrahydropyrano[3,4-b] indole-1-acetic acid], the “increase in percutaneous transfer in the presence of menthol” value (with vs without 5% menthol in a glycerol/propylene glycol vehicle, nude mouse skin) is “about a three fold increase”.
